# Experimental data published in patent publication US20150374673A1, “Combination Therapy for the Treatment of Nosocomial Pneumonia” (priority 2013, published 2015).
# Like-named read-outs stand apart in the source and are kept apart here.
# Columns and labels:
# Assay in all cases: Initial MIC, microbroth dilution (CLSI), avibactam 4 mg/L
# Format in all cases: cell-based
# E. coli = conditions: Escherichia coli
# Description: (§1) All MIC determinations including those performed in the checkerboard assay were done in cation-adjusted Mueller-Hinton broth (purchased from Becton Dickinson, Oxford UK). […]
# E. cloacae = conditions: Enterobacter cloacae
# Description: as §1
# S. aureus = test system: S. aureus
# Description: as §1
# E. faecalis = test system: E. faecalis
# Description: as §1
# K. pneumoniae = conditions: Klebsiella pneumoniae
# Procedure: (§2) All MIC determinations including those performed in the checkerboard assay were done in cation-adjusted Mueller-Hinton broth (purchased from Becton Dickinson, Oxford UK).
# (§3) Initial MIC data were determined by microbroth dilution methods as recommended by CLSI (2012b). Checkerboards were made in accordance with the method given by Pillai et. al., ? Antimicrobial Combinations in Antibiotics, LABORATORY MEDICINE (Lorian Ed., 3rd Ed. (2003)) p. 365-440 as per standard microbroth dilution tests but with agents in combination. […] A final avibactam concentration of 4 mg/L was used throughout the study. Antibacterial agents were combined into microtitre plates using the Evolution III liquid handling system.
# P. aeruginosa = conditions: Pseudomonas aeruginosa
# Procedure: as §2, §3
# [1] = isolate 4 E. coli Basal MICs, read-out: MIC
# [2] = isolate 5 E. coli CTX-M-15, read-out: MIC
# [3] = isolate 6 E. coli TEM-4, read-out: MIC
# [4] = isolate 7 E. coli SHV-12, read-out: MIC
# [5] = isolate 8 E. coli SHV-2, read-out: MIC
# [6] = isolate 1 E. cloacae Basal MICs, read-out: MIC
# [7] = isolate 2 E. cloacae Derepressed AmpC, read-out: MIC
# [8] = isolate 3 E. cloacae Derepressed AmpC, read-out: MIC
# [9] = Staphylococcus aureus, isolate 22 S. aureus Basal MICs, read-out: MIC
# [10] = Staphylococcus aureus, isolate 23 S. aureus Basal MICs, Penicillinase+, read-out: MIC
# [11] = Staphylococcus aureus, isolate 24 S. aureus Basal MICs, Penicillinase+, read-out: MIC
# [12] = Enterococcus faecalis, isolate 25 E. faecalis Basal MICs, read-out: MIC
# [13] = Enterococcus faecalis, isolate 26 E. faecalis Basal MICs, read-out: MIC
# [14] = Enterococcus faecalis, isolate 27 E. faecalis Basal MICs, read-out: MIC
# [15] = isolate 9 K. pneumoniae Basal MICs, read-out: MIC
# [16] = isolate 10 K. pneumoniae TEM-4, read-out: MIC
# [17] = isolate 11 K. pneumoniae CTX-M-15, read-out: MIC
# [18] = isolate 12 K. pneumoniae SHV-12, read-out: MIC
# [19] = isolate 13 K. pneumoniae KPC-3, read-out: MIC
# [20] = isolate 14 K. pneumoniae KPC-3, read-out: MIC
# [21] = isolate 15 K. pneumoniae KPC-2, read-out: MIC
# [22] = isolate 16 P. aeruginosa Basal MICs, read-out: MIC
# [23] = isolate 17 P. aeruginosa Derepressed AmpC, read-out: MIC
# [24] = isolate 18 P. aeruginosa Derepressed AmpC, read-out: MIC
# [25] = isolate 19 P. aeruginosa PER, read-out: MIC
# [26] = isolate 20 P. aeruginosa KPC-2, read-out: MIC
# [27] = isolate 21 P. aeruginosa KPC-2, read-out: MIC
structure (smiles),measurement,setting,value
NC[C@H]1O[C@H](O[C@H]2[C@H](O)[C@@H](O[C@H]3O[C@H](CO)[C@@H](O)[C@H](N)[C@H]3O)[C@H](N)C[C@@H]2N)[C@H](N)C[C@@H]1O [Tobramycin],MIC,E. coli; [1],0.5 µg/mL
same,MIC,E. coli; [2],64 µg/mL
same,MIC,E. coli; [3],1 µg/mL
same,MIC,E. coli; [4],1 µg/mL
same,MIC,E. coli; [5],64 µg/mL
same,MIC,E. cloacae; [6],0.25 µg/mL
same,MIC,E. cloacae; [7],0.25 µg/mL
same,MIC,E. cloacae; [8],0.25 µg/mL
same,MIC,S. aureus; [9],0.25 µg/mL
same,MIC,S. aureus; [10],0.5 µg/mL
same,MIC,S. aureus; [11],0.25 µg/mL
same,MIC,E. faecalis; [12],16 µg/mL
same,MIC,E. faecalis; [13],16 µg/mL
same,MIC,E. faecalis; [14],8 µg/mL
same,MIC,K. pneumoniae; [15],0.25 µg/mL
same,MIC,K. pneumoniae; [16],4 µg/mL
same,MIC,K. pneumoniae; [17],0.25 µg/mL
same,MIC,K. pneumoniae; [18],0.25 µg/mL
same,MIC,K. pneumoniae; [19],0.25 µg/mL
same,MIC,K. pneumoniae; [20],8 µg/mL
same,MIC,K. pneumoniae; [21],0.12 µg/mL
same,MIC,P. aeruginosa; [22],0.25 µg/mL
same,MIC,P. aeruginosa; [23],0.5 µg/mL
same,MIC,P. aeruginosa; [24],0.5 µg/mL
same,MIC,P. aeruginosa; [25],1 µg/mL
same,MIC,P. aeruginosa; [26],256 µg/mL
same,MIC,P. aeruginosa; [27],8 µg/mL
C[C@H]1COc2c(N3CCN(C)CC3)c(F)cc3c(=O)c(C(=O)O)cn1c23 [Levofloxacin],MIC,E. coli; [2],16 µg/mL
same,MIC,E. coli; [3],0.015 µg/mL
same,MIC,E. coli; [4],0.015 µg/mL
same,MIC,E. coli; [5],16 µg/mL
same,MIC,E. cloacae; [6],0.03 µg/mL
same,MIC,E. cloacae; [7],0.5 µg/mL
same,MIC,E. cloacae; [8],0.06 µg/mL
same,MIC,S. aureus; [9],0.25 µg/mL
same,MIC,S. aureus; [10],0.12 µg/mL
same,MIC,S. aureus; [11],0.12 µg/mL
same,MIC,E. faecalis; [12],0.5 µg/mL
same,MIC,E. faecalis; [13],1 µg/mL
same,MIC,E. faecalis; [14],1 µg/mL
same,MIC,K. pneumoniae; [15],0.03 µg/mL
same,MIC,K. pneumoniae; [16],0.03 µg/mL
same,MIC,K. pneumoniae; [17],16 µg/mL
same,MIC,K. pneumoniae; [18],0.03 µg/mL
same,MIC,K. pneumoniae; [19],0.06 µg/mL
same,MIC,K. pneumoniae; [20],16 µg/mL
same,MIC,K. pneumoniae; [21],0.06 µg/mL
same,MIC,P. aeruginosa; [22],1 µg/mL
same,MIC,P. aeruginosa; [23],8 µg/mL
same,MIC,P. aeruginosa; [24],0.12 µg/mL
same,MIC,P. aeruginosa; [25],16 µg/mL
same,MIC,P. aeruginosa; [26],16 µg/mL
same,MIC,P. aeruginosa; [27],32 µg/mL
CN(C)c1cc(NC(=O)CNC(C)(C)C)c(O)c2c1C[C@H]1C[C@H]3[C@H](N(C)C)C(O)=C(C(N)=O)C(=O)[C@@]3(O)C(O)=C1C2=O [Tigecycline],MIC,E. coli; [1],0.12 µg/mL
same,MIC,E. coli; isolate 5 E. coli CTX-M-15,0.25 µg/mL
same,MIC,E. coli; isolate 6 E. coli TEM-4,0.5 µg/mL
same,MIC,E. coli; isolate 7 E. coli SHV-12,0.5 µg/mL
same,MIC,E. coli; isolate 8 E. coli SHV-2,0.25 µg/mL
same,MIC,E. cloacae; [6],0.5 µg/mL
same,MIC,E. cloacae; isolate 2 E. cloacae Derepressed AmpC,1 µg/mL
same,MIC,E. cloacae; isolate 3 E. cloacae Derepressed AmpC,0.5 µg/mL
same,MIC,S. aureus; Staphylococcus aureus,0.12 µg/mL
same,MIC,"S. aureus; isolate 23 S. aureus Basal MICs, Penicillinase+",0.12 µg/mL
same,MIC,"S. aureus; isolate 24 S. aureus Basal MICs, Penicillinase+",0.12 µg/mL
same,MIC,E. faecalis; Enterococcus faecalis,0.06 µg/mL
same,MIC,E. faecalis; isolate 26 E. faecalis Basal MICs,0.06 µg/mL
same,MIC,E. faecalis; isolate 27 E. faecalis Basal MICs,0.06 µg/mL
same,MIC,K. pneumoniae; [15],0.25 µg/mL
same,MIC,K. pneumoniae; isolate 10 K. pneumoniae TEM-4,0.25 µg/mL
same,MIC,K. pneumoniae; isolate 11 K. pneumoniae CTX-M-15,1 µg/mL
same,MIC,K. pneumoniae; isolate 12 K. pneumoniae SHV-12,0.5 µg/mL
same,MIC,K. pneumoniae; isolate 13 K. pneumoniae KPC-3,1 µg/mL
same,MIC,K. pneumoniae; isolate 14 K. pneumoniae KPC-3,0.25 µg/mL
same,MIC,K. pneumoniae; isolate 15 K. pneumoniae KPC-2,0.5 µg/mL
same,MIC,P. aeruginosa; [22],16 µg/mL
same,MIC,P. aeruginosa; isolate 17 P. aeruginosa Derepressed AmpC,32 µg/mL
same,MIC,P. aeruginosa; isolate 18 P. aeruginosa Derepressed AmpC,32 µg/mL
same,MIC,P. aeruginosa; [25],32 µg/mL
same,MIC,P. aeruginosa; isolate 20 P. aeruginosa KPC-2,16 µg/mL
same,MIC,P. aeruginosa; isolate 21 P. aeruginosa KPC-2,2 µg/mL
